Values after ≈ are worked out from the molar mass of the structure shown.
System: S. aureus clinical isolates and S. aureus ATCC 29213
Assay: MIC assay according to CLSI criteria, Example 2, S. aureus strains
Format: cell-based, Staphylococcus aureus
Details: Staphylococcus aureus
Summary of the method: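 S. aureus grown aerobically in cation-adjusted Mueller Hinton broth at 37° C. Exponential-phase cultures inoculated at about 5×10^5 cells per well, then incubated 18 hours at 37° C.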

SMILES: C=C[C@]1(C)C[C@@H](OC(=O)CS[C@@H]2C[C@H]3CC[C@@H](C2)N3C)[C@]2(C)[C@H](C)CC[C@]3(CCC(=O)[C@H]32)[C@@H](C)[C@@H]1O [Retapamulin]
- MIC (ATCC29213, strain 9-1862936): 0.03 µg/mL (≈ 0.0579 µM)
- MIC (ATCC29213, strain 9-2625962): 0.03 µg/mL (≈ 0.0579 µM)
- MIC (ATCC29213, strain 9-2642158): 0.06 µg/mL (≈ 0.116 µM)
- MIC (ATCC29213, strain 9-2955245): 0.06 µg/mL (≈ 0.116 µM)
- MIC (ATCC29213, strain 9-26422166): 0.03 µg/mL (≈ 0.0579 µM)
- MIC (ATCC29213, strain 000040C): 0.03 µg/mL (≈ 0.0579 µM)
- MIC (ATCC29213, strain 000041C): 0.03 µg/mL (≈ 0.0579 µM)
- MIC (ATCC29213, strain 000274T): 0.06 µg/mL (≈ 0.116 µM)
- MIC (ATCC29213, strain 114660U): 0.06 µg/mL (≈ 0.116 µM)
- MIC (ATCC29213, strain 115015T): 0.06 µg/mL (≈ 0.116 µM)
- MIC (ATCC29213, strain 115242C): 0.03 µg/mL (≈ 0.0579 µM)
- MIC (ATCC29213, strain 115263C): 0.03 µg/mL (≈ 0.0579 µM)
- MIC (ATCC29213, strain 115268C): 0.03 µg/mL (≈ 0.0579 µM)
- MIC (ATCC29213, strain 115273C): 0.03 µg/mL (≈ 0.0579 µM)
- MIC (ATCC29213, strain 115295C): 0.03 µg/mL (≈ 0.0579 µM)
- MIC (ATCC29213, strain 115303C): 0.03 µg/mL (≈ 0.0579 µM)
- MIC (ATCC29213, strain 115370U): 0.06 µg/mL (≈ 0.116 µM)
- MIC (ATCC29213, strain 115427C): 0.03 µg/mL (≈ 0.0579 µM)
- MIC (ATCC29213, strain 115445C): 0.03 µg/mL (≈ 0.0579 µM)
- MIC (ATCC29213, strain 115561C): 0.03 µg/mL (≈ 0.0579 µM)
- MIC (ATCC29213, strain 115584D): 0.06 µg/mL (≈ 0.116 µM)
- MIC (ATCC29213, strain 115628T): 0.03 µg/mL (≈ 0.0579 µM)
- MIC (ATCC29213, strain 115690C): 0.25 µg/mL (≈ 0.483 µM)
- MIC (ATCC29213, strain 115691T): 0.03 µg/mL (≈ 0.0579 µM)
- MIC (ATCC29213, strain 115740E): 0.06 µg/mL (≈ 0.116 µM)
- MIC (ATCC29213, strain 115810E): 0.06 µg/mL (≈ 0.116 µM)
- MIC (ATCC29213, strain 115903T): 0.03 µg/mL (≈ 0.0579 µM)
- MIC (ATCC29213, strain 116122T): 0.03 µg/mL (≈ 0.0579 µM)
- MIC (ATCC29213, strain ATCC 29213): 0.03 µg/mL (≈ 0.0579 µM)
- MIC (ATCC29213, strain E5-1029252): 0.03 µg/mL (≈ 0.0579 µM)
- MIC (ATCC29213, strain E5-1029558): 0.03 µg/mL (≈ 0.0579 µM)
- MIC (ATCC29213, strain E5-1030440): 0.06 µg/mL (≈ 0.116 µM)
- MIC (ATCC29213, strain E5-1030469): 0.03 µg/mL (≈ 0.0579 µM)
- MIC (ATCC29213, strain E5-1030472): 0.06 µg/mL (≈ 0.116 µM)
- MIC (ATCC29213, strain E5-1030482): 0.02 µg/mL (≈ 0.0386 µM)
- MIC (ATCC29213, strain E5-1033076 (first line, r202)): 0.03 µg/mL (≈ 0.0579 µM)
- MIC (ATCC29213, strain E5-1033076 (second line, r203)): 0.03 µg/mL (≈ 0.0579 µM)
- MIC (ATCC29213, strain E5-1033088): 0.03 µg/mL (≈ 0.0579 µM)
- MIC (ATCC29213, strain E5-1033091): 0.02 µg/mL (≈ 0.0386 µM)
- MIC (ATCC29213, strain E5-1035277): 0.03 µg/mL (≈ 0.0579 µM)
- MIC (ATCC29213, strain E5-1035284): 0.03 µg/mL (≈ 0.0579 µM)
- MIC (ATCC29213, strain E5-1035775): 0.06 µg/mL (≈ 0.116 µM)
- MIC (ATCC29213, strain E5-1035779): 0.03 µg/mL (≈ 0.0579 µM)
- MIC (ATCC29213, strain E5-1037958): 0.06 µg/mL (≈ 0.116 µM)
- MIC (ATCC29213, strain E5-1037971): 0.03 µg/mL (≈ 0.0579 µM)
- MIC (ATCC29213, strain E5-1038279): 0.03 µg/mL (≈ 0.0579 µM)
- MIC (ATCC29213, strain E5-1038286): 0.06 µg/mL (≈ 0.116 µM)
- MIC (ATCC29213, strain E5-1038294): 0.03 µg/mL (≈ 0.0579 µM)
- MIC (ATCC29213, strain E5-1039684): 0.06 µg/mL (≈ 0.116 µM)
- MIC (ATCC29213, strain E5-1039697): 0.06 µg/mL (≈ 0.116 µM)
- MIC (ATCC29213, strain E5-1041977): 0.03 µg/mL (≈ 0.0579 µM)
- MIC (ATCC29213, strain E5-1041979): 0.03 µg/mL (≈ 0.0579 µM)
- MIC (ATCC29213, strain E5-1041980): 0.03 µg/mL (≈ 0.0579 µM)
- MIC (ATCC29213, strain E5-1041987): 0.03 µg/mL (≈ 0.0579 µM)
- MIC (ATCC29213, strain E5-1043184): 0.03 µg/mL (≈ 0.0579 µM)
- MIC (ATCC29213, strain E5-1043668): 0.06 µg/mL (≈ 0.116 µM)
- MIC (ATCC29213, strain E5-1045179): 0.06 µg/mL (≈ 0.116 µM)
- MIC (ATCC29213, strain E5-1046019): 0.03 µg/mL (≈ 0.0579 µM)
- MIC (ATCC29213, strain E5-1046020): 0.06 µg/mL (≈ 0.116 µM)
- MIC (ATCC29213, strain E5-1046039): 0.06 µg/mL (≈ 0.116 µM)
- MIC (ATCC29213, strain E5-1046070): 0.03 µg/mL (≈ 0.0579 µM)
- MIC (ATCC29213, strain E5-1046074): 0.06 µg/mL (≈ 0.116 µM)
- MIC (ATCC29213, strain E5-1046085): 0.06 µg/mL (≈ 0.116 µM)
- MIC (ATCC29213, strain E5-1046096): 0.06 µg/mL (≈ 0.116 µM)
- MIC (ATCC29213, strain E5-1046296): 0.03 µg/mL (≈ 0.0579 µM)
- MIC (ATCC29213, strain E5-1046297): 0.06 µg/mL (≈ 0.116 µM)
- MIC (ATCC29213, strain E5-1046298): 0.03 µg/mL (≈ 0.0579 µM)
- MIC (ATCC29213, strain E5-1046723): 0.06 µg/mL (≈ 0.116 µM)
- MIC (ATCC29213, strain E5-1047585): 0.03 µg/mL (≈ 0.0579 µM)
- MIC (ATCC29213, strain E5-1047606): 0.03 µg/mL (≈ 0.0579 µM)
- MIC (ATCC29213, strain E5-1047924): 0.03 µg/mL (≈ 0.0579 µM)
- MIC (ATCC29213, strain E5-1048204): 0.03 µg/mL (≈ 0.0579 µM)
- MIC (ATCC29213, strain E5-1048428): 0.06 µg/mL (≈ 0.116 µM)
- MIC (ATCC29213, strain E5-1048654): 0.06 µg/mL (≈ 0.116 µM)
- MIC (ATCC29213, strain E5-1048670): 0.06 µg/mL (≈ 0.116 µM)
- MIC (ATCC29213, strain EEFIC 01): 0.03 µg/mL (≈ 0.0579 µM)
- MIC (ATCC29213, strain EEFIC 02): 0.03 µg/mL (≈ 0.0579 µM)
- MIC (ATCC29213, strain K000772): 0.06 µg/mL (≈ 0.116 µM)
- MIC (ATCC29213, strain K000796): 0.03 µg/mL (≈ 0.0579 µM)
- MIC (ATCC29213, strain K000863): 0.03 µg/mL (≈ 0.0579 µM)
- MIC (ATCC29213, strain K000864): 0.03 µg/mL (≈ 0.0579 µM)
- MIC (ATCC29213, strain K000866): 0.03 µg/mL (≈ 0.0579 µM)
- MIC (ATCC29213, strain K115498): 0.03 µg/mL (≈ 0.0579 µM)
- MIC (ATCC29213, strain K115688): 0.03 µg/mL (≈ 0.0579 µM)
- MIC (ATCC29213, strain K115689): 0.03 µg/mL (≈ 0.0579 µM)
- MIC (ATCC29213, strain R000019): 0.06 µg/mL (≈ 0.116 µM)
- MIC (ATCC29213, strain R000020): 0.03 µg/mL (≈ 0.0579 µM)
- MIC (ATCC29213, strain R000024): 0.06 µg/mL (≈ 0.116 µM)
- MIC (ATCC29213, strain U115579): 0.06 µg/mL (≈ 0.116 µM)
- MIC (ATCC 29213 / MRSA, strain MRSA 01): 0.06 µg/mL (≈ 0.116 µM)
- MIC (ATCC 29213 / MRSA, strain MRSA 02): 0.06 µg/mL (≈ 0.116 µM)
- MIC (ATCC 29213 / MRSA, strain MRSA 03): 0.03 µg/mL (≈ 0.0579 µM)
- MIC (ATCC 29213 / MRSA, strain MRSA 04): 0.06 µg/mL (≈ 0.116 µM)
- MIC (ATCC 29213 / MRSA, strain MRSA 05): 0.03 µg/mL (≈ 0.0579 µM)
- MIC (ATCC 29213 / MRSA, strain MRSA 06): 0.03 µg/mL (≈ 0.0579 µM)
- MIC (ATCC 29213 / MRSA, strain MRSA 07): 0.06 µg/mL (≈ 0.116 µM)
- MIC (ATCC 29213 / MRSA, strain MRSA 08): 0.03 µg/mL (≈ 0.0579 µM)
- MIC (ATCC 29213 / MRSA, strain MRSA 09): 0.06 µg/mL (≈ 0.116 µM)
- MIC (ATCC 29213 / MRSA, strain MRSA 10): 0.06 µg/mL (≈ 0.116 µM)
- MIC (ATCC 29213 / MRSA, strain MRSA 11): 0.06 µg/mL (≈ 0.116 µM)
- MIC (ATCC 29213 / MRSA, strain MRSA 12): 0.03 µg/mL (≈ 0.0579 µM)
- MIC (ATCC 29213 / MRSA, strain MRSA 13): 0.06 µg/mL (≈ 0.116 µM)
- MIC (ATCC 29213 / MRSA, strain MRSA 14): 0.03 µg/mL (≈ 0.0579 µM)

From patent publication US11331327B2, “Antibacterial use of halogenated salicylanilides” (UNION therapeutics A/S, priority 2014, dated 2022)
